Results as given in PubChem BioAssay (NCI).
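All cell lines were grown in 96-well plates and treated with compound for 48 hours. TGI denotes the concentration required for complete inhibition of growth.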

What was measured:
Assay in all cases: growth of human tumour cells (NCI), 48 h
[1] = system: K-562 leukemia
[2] = system: OVCAR-3 ovarian
[3] = system: UACC-62 melanoma
[4] = system: BT-549 breast
[5] = system: HOP-62 NSCLC
[6] = system: UACC-257 melanoma
[7] = system: NCI-H226 lung
[8] = system: RXF 393 renal
[9] = system: EKVX NSCLC
[10] = system: MOLT-4 leukemia
[11] = system: HOP-92 NSCLC
[12] = system: RPMI-8226 leukemia
[13] = system: T-47D breast
[14] = system: PC-3 prostate
[15] = system: SW-620 colon
[16] = system: SN12C renal

| SMILES | TGI [1] | TGI [2] | TGI [3] | TGI [4] | TGI [5] | TGI [6] | TGI [7] | TGI [8] | TGI [9] | TGI [10] | TGI [11] | TGI [12] | TGI [13] | TGI [14] | TGI [15] | TGI [16] |
| --- | --- | --- | --- | --- | --- | --- | --- | --- | --- | --- | --- | --- | --- | --- | --- | --- |
| COC(=O)C1=C(C)N2[C@H](C(=O)O)CO[C@@]2(C)[C@H](C(=O)OC)[C@H]1c1cccc([N+](=O)[O-])c1 | > 100 µM | > 100 µM | > 100 µM | > 100 µM | > 100 µM | > 100 µM | > 100 µM | > 100 µM | > 100 µM | > 100 µM | > 100 µM | > 100 µM | > 100 µM | > 100 µM | > 100 µM | > 100 µM |
| COc1ccc(N=C2C(=Nc3ccc(OC)cc3)N(c3ccccc3)C(=S)N2N=C=C2Sc3ccccc3N2C)cc1 | > 100 µM | > 100 µM | > 100 µM | > 100 µM | > 100 µM | > 100 µM | > 100 µM | > 100 µM | > 100 µM | > 100 µM | > 100 µM | > 100 µM | > 100 µM | > 100 µM | > 100 µM | > 100 µM |
| Cc1ccc2c(=O)cc(-c3ccc(-c4ccccc4)s3)[nH]c2n1 | > 100 µM | > 100 µM | > 100 µM | > 100 µM | > 76.8 µM | > 100 µM | > 100 µM | > 100 µM | > 81.4 µM | > 78.9 µM | > 85.6 µM | > 100 µM | > 100 µM | 85.5 µM | > 100 µM | > 100 µM |
| O=C(/C=C/c1csc(-c2ccccc2)n1)NCc1ccc(C(=O)NCc2ccccc2)cc1 | > 100 µM | > 100 µM | > 100 µM | > 100 µM | 32.8 µM | > 100 µM | > 100 µM | > 100 µM | > 100 µM | > 100 µM | > 100 µM | > 100 µM | > 100 µM | > 100 µM | > 100 µM | > 100 µM |
| CCNC1=C(NC(=O)CC)C(=O)c2ccccc2C1=O | > 100 µM | > 100 µM | > 100 µM | > 100 µM | > 100 µM | > 100 µM | > 100 µM | > 100 µM | > 100 µM | > 100 µM | > 100 µM | > 100 µM | > 100 µM | > 100 µM | > 100 µM | > 100 µM |
| CC(C)(CC(O)C#N)/[N+]([O-])=[N+](\[O-])C(C)(C)CC(O)C#N (centres undefined) | 42.5 µM | 69.2 µM | 37.2 µM | 78.8 µM | 37.9 µM | 58.1 µM | 77 µM | 35.4 µM | > 100 µM | 34.5 µM | 41.9 µM | 44.8 µM | 82.3 µM | > 100 µM | 34.1 µM | 45.3 µM |
| COC(=O)C1=C(OC(=O)c2ccccc2)C(C(=O)OC)[C@]2(O)[C@@H](C(=O)OC)[C@H]1C[C@@H](c1ccccc1)[C@@H]2C(=O)OC (some centres undefined) | 18 µM | 57.4 µM | 60.4 µM | 75.6 µM | 52 µM | 84.6 µM | 19.2 µM | 19.8 µM | > 100 µM | 23 µM | 27.3 µM | 13.8 µM | 33.8 µM | 23.7 µM | 40.1 µM | 43.2 µM |
| N#C/C(=C\c1c[nH]c2ccccc12)C(=O)c1ccc(O)c(O)c1 | > 67 µM | 17.2 µM | > 100 µM | 65.1 µM | > 61.5 µM | > 100 µM | > 100 µM | > 100 µM | > 100 µM | 98.1 µM | 99.2 µM | > 31.6 µM | > 100 µM | > 100 µM | > 100 µM | > 91.5 µM |
| CC(C)CN=C(N)N=C(N)N | > 100 µM | > 100 µM | > 100 µM | > 100 µM | > 100 µM | > 100 µM | > 100 µM | > 100 µM | > 100 µM | > 100 µM | > 100 µM | > 100 µM | > 100 µM | > 100 µM | > 100 µM | > 100 µM |
| C/C(=C/CC[C@]1(CO)CC[C@]2(CO)[C@H](CC[C@@H]3[C@@]4(C)CC[C@H](OC5OCC(O)C(O)C5OC5OC(CO)C(O)C(O)C5O)C(C)(C)[C@@H]4CC[C@]32C)[C@H]1O)CO (some centres undefined) | > 100 µM | > 100 µM | > 100 µM | > 100 µM | > 100 µM | > 100 µM | > 100 µM | > 100 µM | > 100 µM | > 100 µM | > 100 µM | > 100 µM | > 100 µM | > 100 µM | > 100 µM | > 100 µM |
| CCOC(=O)CSc1nnc(C(Sc2nc(-c3ccccc3)c(-c3ccccc3)[nH]2)C(C)C)n1-c1ccccc1 (centres undefined) | > 100 µM | > 10 µM | > 10 µM | 52.9 µM | > 10 µM | 19.3 µM | 26 µM | 67.1 µM | > 31.6 µM | 50 µM | > 10 µM | > 86.9 µM | > 100 µM | > 100 µM | > 31.6 µM | 26.1 µM |
| CCC(c1c[nH]c2ccc(Br)cc12)c1c[nH]c2ccc(Br)cc12 | 6.57 µM | 14.2 µM | 22.2 µM | 23.3 µM | 22.3 µM | 23.9 µM | 44 µM | 7.21 µM | 17.2 µM | 4.56 µM | 8.3 µM | 11.3 µM | 7.97 µM | 17.1 µM | 19.1 µM | 15.4 µM |
| C[C@H]1C=C2[C@@H]3CC(C)(C(=O)O)CC[C@]3(C)CC[C@]2(C)[C@]2(C)CC[C@H]3C(C)(C)[C@@H](OC(=O)c4cccc5c(=O)c6ccccc6[nH]c45)CC[C@]3(C)[C@@H]12 (some centres undefined) | > 100 µM | > 100 µM | > 100 µM | > 100 µM | > 100 µM | > 100 µM | > 100 µM | > 100 µM | > 100 µM | > 100 µM | > 100 µM | > 100 µM | 87.5 µM | > 100 µM | > 100 µM | > 100 µM |
| COC(=O)c1cnn2c1n[n+]([O-])c1ccccc12 | > 100 µM | > 100 µM | > 100 µM | > 100 µM | > 100 µM | > 100 µM | > 100 µM | > 100 µM | > 100 µM | > 100 µM | > 100 µM | > 100 µM | > 100 µM | > 100 µM | > 100 µM | > 100 µM |
| OC(c1ccc(-c2ccccc2)cc1)C(F)(F)c1nc2ccccc2o1 (centres undefined) | > 61.3 µM | > 100 µM | > 100 µM | > 100 µM | > 73.6 µM | > 100 µM | > 100 µM | 49.5 µM | > 100 µM | > 100 µM | > 86.3 µM | > 100 µM | > 100 µM | > 100 µM | > 100 µM | > 100 µM |
| Cc1ccc(/C=C2\CCCC(CN3CCCCC3)C2=O)cc1 (centres undefined) | > 100 µM | 3.39 µM | 16.4 µM | 4.84 µM | 35.4 µM | 4.02 µM | 5.99 µM | 3.15 µM | 32.7 µM | > 100 µM | 4.04 µM | > 100 µM | 3.41 µM | 5.74 µM | 3.14 µM | 8.4 µM |
| COc1ccc2oc(=N)c(C(=O)Nc3ccccn3)cc2c1 | > 100 µM | > 100 µM | > 100 µM | > 100 µM | > 100 µM | > 100 µM | > 100 µM | > 100 µM | > 100 µM | > 100 µM | > 100 µM | > 100 µM | > 100 µM | > 100 µM | > 100 µM | > 100 µM |
| O=C1C[C@@H](c2ccccc2)O[C@@H](c2ccccc2)C1 | > 100 µM | > 100 µM | > 100 µM | > 100 µM | > 100 µM | > 100 µM | > 100 µM | > 100 µM | > 100 µM | > 100 µM | > 100 µM | > 100 µM | > 100 µM | > 100 µM | > 100 µM | > 100 µM |
| COc1nc(N)c(N=CC(OC(C)=O)C(OC(C)=O)C(COC(C)=O)OC(C)=O)c(=O)n1C (centres undefined) | > 100 µM | > 100 µM | > 100 µM | > 100 µM | > 100 µM | > 100 µM | > 100 µM | > 100 µM | > 100 µM | > 100 µM | > 100 µM | > 100 µM | > 100 µM | > 100 µM | > 100 µM | > 100 µM |
